Molecules are shown by their SMILES. Counter-ions that a name gives are not always drawn.

One experiment concerns the target T1, human TLR7 (hTLR7) (Homo sapiens, UniProt Q9NYK1).
T1 construct: expressed in transfected cells
T1 sequence (Q9NYK1 27-1049): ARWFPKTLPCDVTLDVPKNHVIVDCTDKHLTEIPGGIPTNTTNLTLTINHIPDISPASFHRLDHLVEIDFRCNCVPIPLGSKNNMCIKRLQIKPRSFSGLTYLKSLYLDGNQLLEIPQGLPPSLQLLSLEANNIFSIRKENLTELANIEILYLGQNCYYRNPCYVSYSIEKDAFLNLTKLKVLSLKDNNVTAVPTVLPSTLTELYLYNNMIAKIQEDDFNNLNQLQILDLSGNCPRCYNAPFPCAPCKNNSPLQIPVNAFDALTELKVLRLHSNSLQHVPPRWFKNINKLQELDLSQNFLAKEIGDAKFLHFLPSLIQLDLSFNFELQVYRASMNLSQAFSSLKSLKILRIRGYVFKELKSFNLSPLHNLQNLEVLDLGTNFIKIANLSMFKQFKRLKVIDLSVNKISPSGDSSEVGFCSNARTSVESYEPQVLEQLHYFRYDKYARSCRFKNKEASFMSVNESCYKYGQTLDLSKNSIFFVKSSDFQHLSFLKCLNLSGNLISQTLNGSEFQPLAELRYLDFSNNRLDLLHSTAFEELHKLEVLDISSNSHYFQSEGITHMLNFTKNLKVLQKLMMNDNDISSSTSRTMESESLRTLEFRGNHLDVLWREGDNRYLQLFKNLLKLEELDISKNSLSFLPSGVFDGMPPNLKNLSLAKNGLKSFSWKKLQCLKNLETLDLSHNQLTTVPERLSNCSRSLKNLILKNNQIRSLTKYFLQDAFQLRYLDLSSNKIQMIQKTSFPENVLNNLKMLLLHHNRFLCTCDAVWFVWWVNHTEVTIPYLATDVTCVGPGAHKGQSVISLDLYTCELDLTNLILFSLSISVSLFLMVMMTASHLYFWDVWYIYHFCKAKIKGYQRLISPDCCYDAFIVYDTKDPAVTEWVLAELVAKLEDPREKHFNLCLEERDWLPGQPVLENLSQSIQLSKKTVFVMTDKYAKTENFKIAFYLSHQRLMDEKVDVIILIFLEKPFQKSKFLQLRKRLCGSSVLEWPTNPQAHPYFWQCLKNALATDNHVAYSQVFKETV
The experiment is described as follows: Antagonist screen, hTLR7-NFκB-293 cells, NF-κB-luciferase reporter, with EC50 of R848. Conditions: compound at 0.5, 5, 50 μg/ml; EC50 concentration of R848; 16 h; NF-κB-luciferase. The format is cell-based. (Reporter assays use an easily measured gene product as a stand-in for the process of interest.)
As for `CN1CCc2cccc3c2[C@H]1Cc1ccc(O)c(O)c1-3.Cl` [compound 101, Apomorphinehydrochloride (R, —)], the “hTLR7 (inhibitory effect, antagonist score)” value is listed as “— (compounds for which there was no clear down regulation even at 50 μg/ml)”.

In the case of `CC(C)(C)c1ccc(C(O)CCCN2CCC(C(O)(c3ccccc3)c3ccccc3)CC2)cc1` (stereo not shown) [compound 138, Terfenadine], the “hTLR7 (inhibitory effect, antagonist score)” value is 11 (compounds for which there was clear down regulation only at 50 μg/ml).

`CN(C)C(=O)C(CCN1CCC(O)(c2ccc(Cl)cc2)CC1)(c1ccccc1)c1ccccc1` [compound 144, Loperamidehydrochloride]: the “hTLR7 (inhibitory effect, antagonist score)” value is 11 (compounds for which there was clear down regulation only at 50 μg/ml).

Regarding `COc1cc2c(cc1O)C[C@H]1c3c(cc(O)c(OC)c3-2)CCN1C` [compound 600, Boldine], the “hTLR7 (inhibitory effect, antagonist score)” value is on record as “— (compounds for which there was no clear down regulation even at 50 μg/ml)”.

Regarding `CN1CCc2cc3c(c4c2C1Cc1ccccc1-4)OCO3.Cl` (stereo not shown) [compound 669, Remerine hydrochloride], the “hTLR7 (inhibitory effect, antagonist score)” value is 11 (compounds for which there was clear down regulation only at 50 μg/ml).

Turning to `COc1cc2nc(N3CCN(C(=O)C4CCCO4)CC3)nc(N)c2cc1OC.Cl` (stereo not shown) [compound 751, Terazosin hydrochloride], the “hTLR7 (inhibitory effect, antagonist score)” value is “— (compounds for which there was no clear down regulation even at 50 μg/ml)”.

Regarding `COc1cc2nc(N3CCN(C(=O)C4COc5ccccc5O4)CC3)nc(N)c2cc1OC.CS(=O)(=O)O` (stereo not shown) [compound 858, Doxazosin mesylate], the “hTLR7 (inhibitory effect, antagonist score)” value was “— (compounds for which there was no clear down regulation even at 50 μg/ml)”.

`CCN(CC)CCCC(C)Nc1nc(/C=C/c2ccc(Cl)cc2)nc2cc3ccccc3cc12` (stereo not shown) [compound 2000]: the “hTLR7 (inhibitory effect, antagonist score)” value was 13 (compounds for which there was clear down regulation at 0.5 μg/ml, 5 μg/ml, and 50 μg/ml).

On to `CCN(CC)CCCNc1nc(-c2ccccc2)nc2ccccc12` [compound 2001], for which the “hTLR7 (inhibitory effect, antagonist score)” value is 11 (compounds for which there was clear down regulation only at 50 μg/ml).

The same experiment, now with this note: hTLR7-NFκB-293 cells, with EC50 of R848; compound at 0.5, 5 and 50 μg/ml.
As for `COc1cc2cc3c4cc(OC)c(OC)cc4cc[n+]3c(C)c2cc1OC` [compound 431, Coralyne chloridehydrate], the “hTLR7 (inhibitory effect)” value was “— (compounds for which there was no clear down regulation even at 50 μg/ml)”.

In the case of `COc1ccc(Cc2nccc3cc(OC)c(OC)cc23)cc1OC.Cl` [compound 583, Papaverinehydrochloride], the “hTLR7 (inhibitory effect)” value is 11 (compounds for which there was clear down regulation only at 50 μg/ml).

Consider `COc1ccc2cc3[n+](cc2c1OC)CCc1cc2c(cc1-3)OCO2.[Cl-]` [compound 586, Berberine chloride], for which the “hTLR7 (inhibitory effect)” value was “— (compounds for which there was no clear down regulation even at 50 μg/ml)”.

On to `CC[N+](C)(CC)CCC[n+]1c(-c2ccccc2)c2cc(N)ccc2c2ccc(N)cc21.[I-].[I-]` [compound 792, Propidium iodide], for which the “hTLR7 (inhibitory effect)” value is “— (compounds for which there was no clear down regulation even at 50 μg/ml)”.

Consider `CN(C)CCN(Cc1ccc(Cl)cc1)c1ccccn1.Cl` [compound 807, Chloro-pyraminehydrochloride], for which the “hTLR7 (inhibitory effect)” value is recorded as “— (compounds for which there was no clear down regulation even at 50 μg/ml)”.

`CCOc1ccc(Cc2nccc3cc(OCC)c(OCC)cc23)cc1OCC.Cl` [compound 830, Ethaverinehydrochloride]: the “hTLR7 (inhibitory effect)” value is given as 11 (compounds for which there was clear down regulation only at 50 μg/ml).

For the molecule `O=c1c2c(nc(NCCO)n1-c1ccccc1)-c1ccccc1CC21CCCC1` [compound 891], the “hTLR7 (inhibitory effect)” value is on record as 11 (compounds for which there was clear down regulation only at 50 μg/ml).

Regarding `O=c1c2c(nc(NCCO)n1Cc1ccccc1)-c1ccccc1CC21CCCC1` [compound 926], the “hTLR7 (inhibitory effect)” value is 11 (compounds for which there was clear down regulation only at 50 μg/ml).

Turning to `CN1CCc2c1nc1ccccc1c2N` [compound 990, 1-Methyl-2,3-dihydro-1H-pyrrolo[2,3-b]quinolin-4-ylamine], the “hTLR7 (inhibitory effect)” value is reported as “— (compounds for which there was no clear down regulation even at 50 μg/ml)”.

Consider `CN1CCc2c1nc1ccccc1c2NC(=O)CN1CCCCCC1` [compound 1003], for which the “hTLR7 (inhibitory effect)” value was 11 (compounds for which there was clear down regulation only at 50 μg/ml).

Consider `Cc1ccc2nc3c(c(N)c2c1)CCN3C` [compound 1091, 1,6-Dimethyl-2,3-dihydro-1H-pyrrolo[2,3-b]quinolin-4-ylamine], for which the “hTLR7 (inhibitory effect)” value is recorded as 11 (compounds for which there was clear down regulation only at 50 μg/ml).

Turning to `Cc1ccc(-n2c(NCCO)nc3c(c2=O)C2(CCCCC2)Cc2ccccc2-3)cc1` [compound 1137], the “hTLR7 (inhibitory effect)” value was 12 (compounds for which there was clear down regulation at 5 μg/ml and 50 μg/ml).

Turning to `CN1CCc2c1nc1ccc(Br)cc1c2N` [compound 1142, 6-Bromo-1-methyl-2,3-dihydro-1H-pyrrolo[2,3-b]quinolin-4-ylamine], the “hTLR7 (inhibitory effect)” value is reported as 11 (compounds for which there was clear down regulation only at 50 μg/ml).

As to `O=C1c2ccc(S(=O)(=O)c3ccc4c(c3)C(=O)N(c3ccccn3)C4=O)cc2C(=O)N1c1ccccn1` [compound 1163], the “hTLR7 (inhibitory effect)” value is 11 (compounds for which there was clear down regulation only at 50 μg/ml).

As to `CN1CCCCc2c1nc1ccccc1c2N` [compound 1185, 1-Methyl-2,3,4,5-tetrahydro-1H-azepino[2,3-b]quinolin-6-ylamine], the “hTLR7 (inhibitory effect)” value is “— (compounds for which there was no clear down regulation even at 50 μg/ml)”.

As for `CN1CCc2c1nc1ccccc1c2NC(=O)CN1CCN(c2ccccc2)CC1` [compound 1212], the “hTLR7 (inhibitory effect)” value was 11 (compounds for which there was clear down regulation only at 50 μg/ml).

`Cn1c(NN)nc2c(c1=O)C1(CCCC1)Cc1ccccc1-2` [compound 1213]: the “hTLR7 (inhibitory effect)” value was 11 (compounds for which there was clear down regulation only at 50 μg/ml).

As for `Nc1c2c(nc3ccccc13)N(Cc1ccccc1)CC2` [compound 1217, 1-Benzyl-2,3-dihydro-1H-pyrrolo[2,3-b]quinolin-4-ylamine], the “hTLR7 (inhibitory effect)” value is 13 (compounds for which there was clear down regulation at 0.5 μg/ml, 5 μg/ml, and 50 μg/ml).

As for `CCCCCCN(CCCCCC)CC(=O)Nc1c2c(nc3ccccc13)N(C)CC2` [compound 1224], the “hTLR7 (inhibitory effect)” value is 12 (compounds for which there was clear down regulation at 5 μg/ml and 50 μg/ml).

As for `O=C(CN1CCCC1)Nc1c2c(nc3ccccc13)N(c1ccccc1)CC2` [compound 1244], the “hTLR7 (inhibitory effect)” value is 11 (compounds for which there was clear down regulation only at 50 μg/ml).

In the case of `NNc1nc2c(c(=O)n1C1CCCC1)C1(CCCC1)Cc1ccccc1-2` [compound 1248], the “hTLR7 (inhibitory effect)” value is reported as 11 (compounds for which there was clear down regulation only at 50 μg/ml).

`NNc1nc2c(c(=O)n1-c1ccccc1)C1(CCCC1)Cc1ccccc1-2` [compound 1320]: the “hTLR7 (inhibitory effect)” value is reported as “— (compounds for which there was no clear down regulation even at 50 μg/ml)”.

As for `O=c1[nH]c(NCCO)nc2c1C1(CCCC1)Cc1ccccc1-2` [compound 1322], the “hTLR7 (inhibitory effect)” value was 11 (compounds for which there was clear down regulation only at 50 μg/ml).

Turning to `CCCCCCCCCCCC(=O)Nc1c2c(nc3ccccc13)N(C)CC2` [compound 1334], the “hTLR7 (inhibitory effect)” value is listed as “— (compounds for which there was no clear down regulation even at 50 μg/ml)”.

On to `O=C1c2ccc(Oc3ccc(S(=O)(=O)c4ccc(Oc5ccc6c(c5)C(=O)N(c5ccccn5)C6=O)cc4)cc3)cc2C(=O)N1c1ccccn1` [compound 1367], for which the “hTLR7 (inhibitory effect)” value is reported as 11 (compounds for which there was clear down regulation only at 50 μg/ml).

Values taken from patent publication US7410975B2, “Small molecule toll-like receptor (TLR) antagonists” (Coley Pharmaceutical Group, Inc., priority 2003, dated 2008).
